Source: patent US12318365B2, “Inhibition of dipeptide repeat proteins” (ALS Therapy Development Institute, priority 2019, dated 2025)
No end group written: not given here.

Assays:
[1] = system: NSC-34 cells; experiment: LDH assay (cytotoxicity) in NSC-34 cells; assay type: cell-based; conditions: for dose dependence of abrogation of GR15-induced cytotoxicity / dose dependence of abrogation of PR15-induced cytotoxicity: dose range of the example
Description: LDH Assay: The LDH assay is a colorimetric assay that measures cell toxicity and death. […] When cells lose membrane integrity, an enzyme found in living cells called lactate dehydrogenase (LDH) is released into the solution surrounding the dying cell. A form of programmed cell death, apoptosis, as well as other forms of cell death also ultimately lead to a cell's membrane being destroyed, resulting in a large release of LDH into the extracellular space. Thus, LDH is an excellent marker not only for necrosis, but for all instances of cell death. In an LDH assay, a sample of the solution surrounding the cell is isolated, and transferred to a plate containing an LDH reaction mixture. This reaction mixture contains a tetrazolium salt intermediate and other reaction constituents that, when exposed to LDH, convert the tetrazolium salt into a colored Formazan product. This Formazan product can be quantified spectrophotometrically. Greater absorbance readings correspond to more cell death.
One row on the top and bottom of the plate, and two columns on either side of the plate, were left without cells and contained culture medium only to minimize experimental well volume evaporation. After plating, cells were incubated for 24 h at 37° C., 5% CO2 prior to DRP and/or PRMT inhibitor addition. At time of DRP/PRMT inhibitor addition, desired doses of DRP for challenge and inhibitor for treatment were achieved by diluting aliquots of each stock in warm culture medium. During experiments where both PRMT inhibitors and DRPs were used, PRMT inhibitors were always applied to wells first, and followed by DRP application. […] Inhibitor toxicity controls were included as wells treated with the desired doses of drug for the experiment, but no DRP. DRP toxicity controls were included as wells only treated with the doses of DRP used for challenge. Once dosed, plates were incubated for 24 h at 37° C., 5% CO2 prior to running the WST-1 or LDH assay endpoints. Additional controls needed for each endpoint are specified in the “WST-1 Assay” and “LDH Assay” sections of these methods.
LDH Assay: Cells were plated and prepared using the steps described in the “Plating NSC-34 and Dosing with DRPs and PRMT Inhibitors” section of these methods. Other controls for this experiment included several sets of wells with only cells in culture medium (one triplicate designated for “untreated,” one triplicate designated for “lysed” positive control), and wells with culture medium only. An additional control added only to the transfer plate at time of testing was 5 μL LDH only. Testing was performed using colorimetric LDH-Cytotoxicity Assay Kit II (Abcam, Cambridge, MA, USA) per manufacturer's instructions. Final read at 450 nm was performed on a SpectraMax M3 Microplate Reader (Molecular Devices, San Jose, CA, USA). Data analysis included calculation of % LDH release using the following equation: […]
Experiments included three replicates per condition. Each experiment was repeated twice (executed three times total).
(§1) The following conditions were plated in triplicate.
Plates were incubated for 24 h at 37° C., 5% CO2. Cells were tested and data were analyzed by LDH assay.
Cells were plated in culture medium in 2 96-well plates at a density of 3.7×10^4 cells per well, and incubated overnight at 37° C., 5% CO2.
as §1
Cells were plated in culture medium in 2 96-well plates at a density of 3.7×10^4 cells per well, and incubated overnight at 37° C., 5% CO2. […]
The following conditions were plated in triplicate. […]

[2] = system: NSC-34 motor-neuron-like cells; experiment: WST-1 assay (dysmetabolism) in NSC-34 cells; assay type: cell-based, Mouse; conditions: for dose dependence of abrogation of GR15-induced dysmetabolism / dose dependence of abrogation of PR15-induced dysmetabolism: dose range of the example
Description: WST-1 Assay: The WST-1 assay is a colorimetric assay that measures cell metabolism. Cells with a healthy metabolism contain mitochondrial dehydrogenase enzymes that remove hydrogen atoms from certain molecules, resulting in a release of energy that the cell can use to perform critical reactions. In the WST-1 assay, a water soluble tetrazolium salt substrate (known as WST-1) is applied, which readily enters cells and their mitochondria upon application. If cells are viable, their mitochondrial dehydrogenase enzymes will catalyze the reaction to convert this WST-1 substrate to a colored product called Formazan. The production of this colored Formazan product by viable cells can be quantified using a spectrophotometer (plate reader). Higher absorbance readings correspond to greater metabolic activity/cell viability.
NSC-34 Cell Culture: NSC-34 cells (Cedarlane Laboratories, Burlington, ON, CA) were cultured in a complete medium consisting of High Glucose Dulbecco's Modified Eagle Medium (Millipore-Sigma, Burlington, MA, USA) supplemented with 10% US-origin fetal bovine serum (Thermo-Fisher Scientific, Cambridge, MA, USA), 1% 200 mM L-Glutamine solution (Thermo-Fisher Scientific, Cambridge, MA, USA), and 1% 10,000 U/mL Penicillin-Streptomycin solution (Thermo-Fisher Scientific, Cambridge, MA, USA). Prior to preparation of NSC-34 complete medium, L-Glutamine and Penicillin-Streptomycin solutions were aliquoted and stored at −20° C., and DMEM/High Glucose was stored at 4°. […] Prepared complete medium, DPBS, and Trypsin were always heated in a 37° C. water bath before use, and stored at 4° C. between uses. Cell counts for plating were performed using a Hausser Scientific cell counting chamber (Thermo-Fisher Scientific, Cambridge, MA, USA).
Proteins were reconstituted in sterile DMSO (Millipore-Sigma, Burlington, MA, USA) to stock concentrations of 10 mM, and stored at 4° C.
After reconstitution using the solvents specified in Table _, stocks were aliquoted to 15-20 μL and immediately stored at −20° C.
One row on the top and bottom of the plate, and two columns on either side of the plate, were left without cells and contained culture medium only to minimize experimental well volume evaporation. After plating, cells were incubated for 24 h at 37° C., 5% CO2 prior to DRP and/or PRMT inhibitor addition. At time of DRP/PRMT inhibitor addition, desired doses of DRP for challenge and inhibitor for treatment were achieved by diluting aliquots of each stock in warm culture medium. During experiments where both PRMT inhibitors and DRPs were used, PRMT inhibitors were always applied to wells first, and followed by DRP application. […] Inhibitor toxicity controls were included as wells treated with the desired doses of drug for the experiment, but no DRP. DRP toxicity controls were included as wells only treated with the doses of DRP used for challenge. […] Additional controls needed for each endpoint are specified in the “WST-1 Assay” and “LDH Assay” sections of these methods.
WST-1 Assay: Cells were plated and prepared using the steps described in the “Plating NSC-34 and Dosing with DRPs and PRMT Inhibitors” section of these methods. Other controls for this experiment included wells containing only cells in culture medium, and culture medium only. At time of testing, culture medium was removed from wells and replaced with a warmed, sterile-filtered solution consisting of DPBS with calcium and magnesium, and 4.5 g/L D-glucose (Millipore-Sigma, Burlington, MA, USA). To wells containing 200 μL DPBS-glucose solution, 20 μL/well WST-1 reagent (Millipore-Sigma, Burlington, MA) was applied and plates were then incubated at 37° C., 5% CO2 for 1 h before plates were read at 450 nm on a SpectraMax M3 Microplate Reader (Molecular Devices, San Jose, CA, USA). Experiments included three replicates per condition.

[3] = 3 μM GR15, 24 h, doses 0.2-20 μM

ADMe-GR15: asymmetrically dimethylated GR15, synthesized protein (Eurogentec) (GRGRGRGRGRGRGRGRGRGRGRGRGRGRGR; also: asymmetric arginine dimethylation, extent/places not given here)
cytotoxicity compared with non-methylated GR15 [1]: consistently producing more cytotoxicity than non-methylated GR15
dysmetabolism compared with non-methylated GR15 [2]: consistently producing more dysmetabolism than non-methylated GR15

CCOCC1(COCC)CCC(c2n[nH]cc2CN(C)CCNC)CC1 [GSK3368715]
abrogation of GR15-induced cytotoxicity ([1]; 3 μM GR15, 24 h, dose 1 μM): completely abrogated
dose dependence of abrogation of GR15-induced cytotoxicity ([1]; 3 μM GR15, 24 h): dose-dependently abrogated
abrogation of PR15-induced cytotoxicity ([1]; 3 μM PR15, 24 h, dose 1 μM): completely abrogated
abrogation of PR15-induced cytotoxicity ([1]; 3 μM PR15, 24 h, dose 3 μM): nearly completely abrogated
dose dependence of abrogation of PR15-induced cytotoxicity ([1]; 3 μM PR15, 24 h): dose-dependently abrogated
cytotoxicity independently of GR15 and PR15 challenge ([1]; no DRP, all doses (0.1-10 μM), likely solvent effects): induced low levels of cytotoxicity
dose dependence of abrogation of GR15-induced dysmetabolism ([2]; 3 μM GR15 challenge, 24 h): dose-dependently abrogated
abrogation of GR15-induced dysmetabolism ([2]; 3 μM GR15 challenge, 24 h, inhibitor doses 1 and 3 μM): completely abrogated
dose dependence of abrogation of PR15-induced dysmetabolism ([2]; 3 μM PR15 challenge, 24 h): dose-dependently abrogated
abrogation of PR15-induced dysmetabolism ([2]; 3 μM PR15 challenge, 24 h, inhibitor doses 1 and 3 μM): completely abrogated

CC(C)Oc1ccc(-c2c[nH]cc2CN(C)CCO)cc1 [MS094]
abrogation of GR15-induced cytotoxicity ([1]; 3 μM GR15, 24 h, over all tested doses (0.2-60 μM)): No doses of negative control MS094 abrogated cytotoxicity
abrogation of PR15-induced cytotoxicity ([1]; 3 μM PR15, 24 h, over all tested doses (0.2-60 μM)): No doses of negative control MS094 abrogated cytotoxicity
cytotoxicity of inhibitor alone vs untreated controls ([1]; no DRP, doses 10, 30 and 60 μM, at highest 2 doses likely DMSO-related): produced cytotoxicity
abrogation of GR15-induced dysmetabolism ([2]; 3 μM GR15 challenge, 24 h, over all tested doses of the inhibitor): No doses of negative control MS094 abrogated dysmetabolism
abrogation of PR15-induced dysmetabolism ([2]; 3 μM PR15 challenge, 24 h, over all tested doses of the inhibitor): No doses of negative control MS094 abrogated dysmetabolism

CNCCN(C)Cc1c[nH]nc1-c1ccc(OC2CC(OCCC3CCOCC3)C2)cc1 (centres unmarked) [EPZ020411]
abrogation of GR15-induced cytotoxicity ([1]; 3 μM GR15, 24 h, all doses but 0.2 μM (1, 2, 10, 20 μM)): partially abrogated
dose dependence of abrogation of GR15-induced cytotoxicity ([1]; 3 μM GR15, 24 h): dose-dependently abrogated
dose with the greatest effect on GR15-induced cytotoxicity [1, 3]: 20 µM
abrogation of PR15-induced cytotoxicity ([1]; 3 μM PR15, 24 h, all doses but 0.2 μM (1, 2, 10, 20 μM)): partially abrogated
dose dependence of abrogation of PR15-induced cytotoxicity ([1]; 3 μM PR15, 24 h): dose-dependently abrogated
dose with the greatest effect on PR15-induced cytotoxicity ([1]; 3 μM PR15, 24 h, doses 0.2-20 μM): 20 µM
cytotoxicity independently of GR and PR challenge ([1]; no DRP, doses 10 and 20 μM): did cause significant cytotoxicity
dose with the greatest abrogation of GR15-induced dysmetabolism [2, 3]: 20 µM
abrogation of GR15-induced dysmetabolism ([2]; 3 μM GR15, 24 h, inhibitor doses 2, 10 and 20 μM): partially abrogated
dose dependence of abrogation of GR15-induced dysmetabolism ([2]; 3 μM GR15 challenge, 24 h): dose-dependently abrogated
abrogation of PR15-induced dysmetabolism ([2]; 3 μM PR15, 24 h, inhibitor doses 10 and 20 μM): completely abrogated
dose dependence of abrogation of PR15-induced dysmetabolism ([2]; 3 μM PR15 challenge, 24 h): dose-dependently abrogated
dysmetabolism independently of GR and PR challenge ([2]; no DRP, doses 10 and 20 μM, not attributable to DMSO): did cause significant dysmetabolism
dysmetabolism independently of GR and PR challenge ([2]; no DRP, other doses tested (0.2, 1, 2 μM)): not at other doses tested

O=C(NC[C@H](O)CN1CCc2ccccc2C1)c1ccnc(NC2CCC2)c1 [GSK591]
dysmetabolism independently of PR15 challenge vs untreated controls ([2]; no DRP, doses 33, 100 and 200 μM): produced dysmetabolism
